How the values were obtained:
[1] = Hydrolysis rate / drug release rate of the compounds (release of JAK inhibitor, HPLC); type: physicochemical; settings: % release of JAK inhibitor from sample in acetonitrile/water=7/3 (v/v), 37° C. constant temperature shaker, sampled days 1-4, HPLC
In short: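 HPLC quantified parent JAK inhibitor freed from each compound, calibrated with 0.0002–0.08 mg/mL standards. Samples in acetonitrile/water 7/3 were kept sealed at 37° C and analysed at day 0 and on days 1 to 4. % release was computed from sample weight, curve slope/intercept and the molecular-weight ratio.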

[2] = tested on: IMQ-induced psoriasis mouse model; experiment: IMQ-induced psoriasis mouse model, PASI score of compound ointments applied to skin; type: in vivo; settings: ointment 20 mg/g, 50 mg, skin smear BID, day 1 to day 9; BALB/c mice, 5% IMQ cream; Two-way ANOVA p<0.05
Experimental: Efficacy Evaluation Study of Ointment Transdermal Patch Formulated by Compounds Using IMQ-Induced Psoriasis Mouse Model
BALB/c mice (male) aged 6-8 weeks were selected to have depilated back skin with an area of 2×3 cm. 5% IMQ cream 62.5 mg was applied once a day for 9 consecutive days for model induction. Mice were housed in an SPF-grade animal room in IVC cages at a temperature of 20-26° C. and a humidity of 40-70% under a 12-hour light-dark cycle. Diet ad libitum, except where fasting is required.
Mice were randomly divided into groups, a number of 8 mice, administration concentration 20 mg/g, administration amount 50 mg, administration route, and frequency: skin smear, BID. The positive control was compound dexamethasone acetate (Dex) cream which is a commercially available product with a Dex content of 0.75 mg/g (999 Piyanping, Sanjiu Pharmaceutical). Dosing started from day 1 (the first day) (the day of model induction) to day 9.
2. Preparation of Test Ointment
Topical preparations are mostly semi-solid dosage forms. The base and solvent of a semi-solid dosage form are generally widely used in medicine and daily chemical products. The excipients which can be added are also the common excipients in the manual of excipients. Therefore, the patent compounds are prepared into corresponding test ointments. The ointment compound was dissolved with diisopropyl adipate to prepare a vaseline-based ointment. In order to improve the stability of the ointment, microcrystalline cellulose was added as an excipient in the formulation. The white vaseline has a melting point of 45-60° C. The solution, white vaseline, and microcrystalline cellulose are thoroughly mixed while the vaseline is in a molten state. After cooling to solidification, it was divided into an aluminum ointment, and the specific weight ratios of base, solvent, and excipients are shown in Table 4.
Dorsal modeling site skin PASI was performed on the experimental animals.
Statistical analysis of PASI scores was performed using Two-way ANOVA. All data were analyzed using GraphPad Prism 8.0 software with a p<0.05 significant difference (*, p<0.05; **, p<0.01).
The PASI score curves of CPD-029, CPD-028, CPD-027, CPD-017, and CPD-002 compared with the model group, excipient group, and Dex cream group are shown in FIGS. 1, 2, 3, 4, and 5, respectively. Among them, the model group was treated with 62.5 mg of 5% IMQ cream applied to the back skin of mice once daily to induce psoriasis, and the excipient group was treated with 15% (w/w) diisopropyl adipate, 80% vaseline, and […].

SMILES | Release Rate (%/day) [1] [%/day] | PASI score: therapeutic effect compared with the excipient group [2]
CNS(=O)(=O)CC1CCC(N(C)c2ncnc3c2ccn3C(=O)[C@@H](C)c2ccc(CC(C)C)cc2)CC1 (stereo partly drawn) [Ex. 27, 1-((1S, 4R)-4-((7-((S)-2-(4-isobutylphenyl)propanoyl)-7H-pyrrolo [2,3-d]pyrimidin-4-yl) (methyl)amino)cyclohexyl)-N-methyl methanesulfonamide] | 7.48 | significant therapeutic effect in day 5-day 10
CC(C)Cc1ccc([C@H](C)C(=O)n2ccc3c(-c4cnn([C@H](CC#N)C5CCCC5)c4)ncnc32)cc1 [Ex. 28] | 2.98 | significant therapeutic effect in day 5-day 10
CCC(C(=O)n1ccc2c(N(C)[C@H]3CN(C(=O)CC#N)CC[C@H]3C)ncnc21)c1ccc(N2Cc3ccccc3C2=O)cc1 (stereo partly drawn) [Ex. 29, 3-((3R, 4R)-4-methyl-3-(methyl (7-(2-(4-(1-oxoisoindolin-2-yl)phenyl)butanoyl)-7H-pyrrolo [2,3-d]pyrimidin-4-yl)amino)piperidin-1-yl)-3-oxopropanenitrile] | 7.08 | significant therapeutic effect in day 5-day 10
